One experiment relates to glaucoma. The note with it: clinical trial; Eur. J. Ophthalmol. 1997, 7(1): 35-9; cited from earlier work.
In experiment [1] the test system is ocular hypertension models of New Zealand White Rabbits. The experiment in a line: Intraocular pressure lowering test (4), ocular hypertension model (Example 4). It is filed as in vivo. Conditions: relative to control group. The protocol:
Using New Zealand White Rabbits having body weights of 2 to 3 kg, ocular hypertension models were prepared in accordance with the method of Kurihara, et al. (Jpn. J. Ocular Pharmacology, 4, 62-64(1990)) and the intraocular pressure lowering action of the test compounds was investigated.
Described specifically, the rabbits were maintained under general anesthesia and their intraocular pressure was measured using a tonometer (“Alcon Applanation Pneumatonography”; manufactured by Alcon). After instillation of local anesthetics into the eyes of the rabbits, 0.1 ml of a 5% sodium chloride solution were injected into their vitreous bodies through a 30 gauge needle. An increase in the intraocular pressure was confirmed 30 minutes after injection, followed by administration of 50 μl of an eye drop solution containing the test compound. Their intraocular pressure was then measured for 2 hours at intervals of 30 minutes (single administration test).
An ocular hypertension model was made as in Example 1. After confirmation of an increase in the intraocular pressure, 50 μl of a test compound 1 was instilled to the eyes, followed by application of the same amount of a test compound 2 into the eyes after 5 minutes. After this second administration, the intraocular pressure was measured for 2 hours at intervals of 1 hour. Intraocular pressure lowering was determined by the below-described equation. Decrease in intraocular pressure (mmHg)=(intraocular pressure after instillation of a compound group−intraocular pressure before instillation of the compound group)−(intraocular pressure after instillation of a control group−intraocular pressure before instillation of the control group)
The term “control group” in the above-described formula means a group to which physiological saline was administered to the eyes instead of each of the test compound 1 and test compound 2. Groups other than this control group are a compound group.
Also in this Example, the same test compounds as described in Example 1 were employed.

The subject of experiment [2] is intraocular pressure of New Zealand White Rabbits. The experiment in a line: Intraocular pressure lowering test (3), change ratio of intraocular pressure (Example 3). It is filed as in vivo. Conditions: 50 μl each, four hours after second administration. Here is the method: Using a tonometer (“Alcon Applanation Pneumatonography; manufactured by Alcon), the intraocular pressure of each of New Zealand White Rabbits having body weights of 2 to 3 kg was measured (without anesthesia), followed by administration of 50 μl of a test compound in the form of eye drops. The intraocular pressure was then measured for 4 hours at intervals of one hour (single administration test).
After the measurement of the intraocular pressure as in Example 2, 50 μl of a solution of test compound 1 was instilled into the eyes, followed by administration of the same amount of the solution of test compound 2 after 5 minutes. Four hours after the second administration, the intraocular pressure was measured and the change ratio of the intraocular pressure was determined by the below-described equation: The change ratio of intraocular pressure (%)=[(intraocular pressure after administration of eye drops−intraocular pressure before administration of eye drops)/intraocular pressure before administration of eye drops]×100.
In this Example, the same test compounds as Example 1 were employed. The results are shown below in Tables 1 and 2.

Counter-ions that a name gives are not always drawn.

Consider `CCCCC(=O)N(Cc1ccc(-c2ccccc2-c2nnn[nH]2)cc1)[C@H](C(=O)O)C(C)C` [CGP-48933], for which the effect for glaucoma entry in the experiment on glaucoma is “insufficient”.

With `CCCc1nc(C(C)(C)O)c(C(=O)O)n1Cc1ccc(-c2ccccc2-c2nnn[nH]2)cc1` [Compound A], the “Decrease in intraocular pressure (mmHg)” value in experiment [1] (Compound A (1%) then physiological saline, time after instillation 0 min) was 0.0 ± 2.1 mmHg; in experiment [1] (Compound A (1%) then physiological saline, time after instillation 60 min), −1.7 ± 2.2 mmHg; in experiment [1] (Compound A (1%) then physiological saline, time after instillation 120 min), −3.4 ± 1.7 mmHg. For the same molecule, the “Change ratio (%) of intraocular pressure” value is 11.4 ± 5.5% in experiment [2] (Table 1, Compound A (4%) then physiological saline) and 11.5 ± 4.1% in experiment [2] (Table 2, Compound A (4%) then physiological saline).

Regarding `CC(C)(C)NC[C@H](O)COc1nsnc1N1CCOCC1` [Compound B, timolol maleate], the “Decrease in intraocular pressure (mmHg)” value in experiment [1] (physiological saline then Compound B (0.25%), time after instillation 0 min) was 0.0 ± 1.5 mmHg; in experiment [1] (physiological saline then Compound B (0.25%), time after instillation 60 min) it was −2.0 ± 3.5 mmHg; in experiment [1] (physiological saline then Compound B (0.25%), time after instillation 120 min), −1.9 ± 3.2 mmHg.

Turning to `CCCCCCCC(=O)CC[C@@H]1[C@@H](C/C=C\CCCC(=O)OC(C)C)[C@@H](O)C[C@H]1O` [Compound C, isopropyl unoprostone], in experiment [2] (Table 1, physiological saline then Compound C (0.12%)), the “Change ratio (%) of intraocular pressure” value is −2.4 ± 9.1%.

For `CC(C)OC(=O)CCC/C=C\C[C@@H]1[C@@H](CC[C@@H](O)CCc2ccccc2)[C@H](O)C[C@@H]1O` [Compound D, latanoprost], the “Change ratio (%) of intraocular pressure” value in experiment [2] (Table 2, physiological saline then Compound D (0.005%)) is reported as 17.2 ± 8.8%.

The values are drawn from US7307096B2, “Combined agents for treatment of glaucoma” (Sankyo Company, Limited, priority 1999, dated 2007).
